# Assay results: patent US20230405134A1, “NOVEL PROTAC CHIMERIC COMPOUND, AND PHARMACEUTICAL COMPOSITION COMPRISING SAME FOR PREVENTING, AMELIORATING, OR TREATING DISEASES THROUGH TARGET PROTEIN DEGRADATION” (POSTECH RESEARCH AND BUSINESS DEVELOPMENT FOUNDATION, priority 2020, published 2023)
# Where a SMILES comes first, the peptide text is derived from it. Bridges are numbered along the chain shown (N, C = ends). [ ]: non-standard residue; d: D form. Cha = N[C@@H](CC1CCCCC1)C(=O)O; S5 = C=CCCC[C@](C)(N)C(=O)O
# What was measured:
# MDA-MB-231 = test: Cell viability assay; format: cell-based, human; settings: MDA-MB-231, various concentrations, 48 hours
# Experimental: (§1) To further confirm the above results, an MTT cell viability assay was performed. MDA-MB-231 (1×10^4 cells/well), HEK293T (1×10^4 cells/well) and Colo205 (2×10^4 cells/well) cells were seeded in a 96-well plate, and cultured under the conditions of 37° C. and 5% carbon dioxide. After 24 hours, the cells were washed twice with DPBS and treated with DMSO or various concentrations of ND1-YL2 in Opti-MEM medium for 48 hours. Cell viability was measured by the Cyto X cell viability assay kit (LPS solution) according to the manufacturer's instructions.
# Colo205 = test: Cell viability assay; format: cell-based, human; settings: Colo205, various concentrations, 48 hours
# Experimental: as §1
# MDA-MB-231-RFP cells = test: Pulmonary metastasis model in mice; format: in vivo, BALB/c-nude mice; settings: cells treated with 100 μM for 12 hours, intravenously injected, flow cytometry of lungs after two weeks
# Experimental: It was confirmed whether ND1-YL2 could inhibit cancer metastasis through mice model. MDA-MB-231-RFP cells expressing red fluorescent protein (RFP) were cultured in DMEM (Welgene) containing 10% FBS (Omega Scientific Inc.) under the conditions of 37° C. and 5% CO2. 5-week-old BALB/c-nude mice (OriententBio Inc.) were maintained in a sterile environment and had free access to food and water. All animal procedures were approved by the Organ Animal Care and Use Committee of POSTECH. For the pulmonary metastasis model, MDA-MB-231-RFP cells treated with DMSO or 100 μM of ND1-YL2 for 12 hours were intravenously injected at 10^6 cells per mouse, followed by […]. The lungs were harvested and prepared in a single cell suspension and filtered through a 100 μm cell strainer (Corning). It was further cultured for 2 minutes in ACK lysis buffer (Gibco). The samples were analyzed by LSR Fortessa (BD Biosciences). […] To visualize lung metastasis, lung sections were prepared and dyed with Haemotoxylin and Eosin (H&E) stain.
# SRC-1 = SRC-1 (Homo sapiens, UniProt Q15788); test: SRC-1 expression level in Colo205 cells by Western blot; format: cell-based; parameters: endogenous in cells; settings: Colo205 cells expressing very low levels of CRBN, various concentrations
# Experimental: MDA-MB-231 cells were cultured at 37° C. in Dulbecco's modified Eagle's medium (DMEM) supplemented with penicillin-streptomycin containing 10% fetal bovine serum (FBS) and 5% CO2. Colo205 and A549 cells were cultured at 37° C. in Roswell Park Memorial Institute medium supplemented with penicillin-streptomycin with 10% FBS and 5% CO2.
# In order to compare the SRC-1 proteolytic activity of ND1-YL2 and CL1-YL2 peptides in cells, A549 cells, which are human lung carcinoma cells, were treated with various concentrations of CL1-YL2, and the effect on SRC-1 degradation was analyzed by Western blot. A549 cells were seeded at 5×10^5 cells per well in a 6-well plate (Corning). Colo205 cells were seeded at 6×10^5 cells per well in a 6-well plate. After incubation at 37° C. for 24 hours, the cells were treated with the synthesized compounds in Opti-MEM medium. The cells were washed twice with cold Dulbecco's phosphate buffered saline (DPBS) prior to cell lysis. In order to lyse the cells, the cells on ice were treated with lysis buffer (50 mM Tris HCl pH 7.4, 150 mM NaCl, 1% TritonX, 1 mM EDTA, 1 mM DTT and 1×protease inhibitor cocktail). The cell lysate was centrifuged at 13,000×rpm for 15 minutes at 4° C. The supernatant was collected and the protein concentration was determined by Pierce™ 660 nm protein assay. […]
# Chain of SRC-1 (Q15788 whole entry): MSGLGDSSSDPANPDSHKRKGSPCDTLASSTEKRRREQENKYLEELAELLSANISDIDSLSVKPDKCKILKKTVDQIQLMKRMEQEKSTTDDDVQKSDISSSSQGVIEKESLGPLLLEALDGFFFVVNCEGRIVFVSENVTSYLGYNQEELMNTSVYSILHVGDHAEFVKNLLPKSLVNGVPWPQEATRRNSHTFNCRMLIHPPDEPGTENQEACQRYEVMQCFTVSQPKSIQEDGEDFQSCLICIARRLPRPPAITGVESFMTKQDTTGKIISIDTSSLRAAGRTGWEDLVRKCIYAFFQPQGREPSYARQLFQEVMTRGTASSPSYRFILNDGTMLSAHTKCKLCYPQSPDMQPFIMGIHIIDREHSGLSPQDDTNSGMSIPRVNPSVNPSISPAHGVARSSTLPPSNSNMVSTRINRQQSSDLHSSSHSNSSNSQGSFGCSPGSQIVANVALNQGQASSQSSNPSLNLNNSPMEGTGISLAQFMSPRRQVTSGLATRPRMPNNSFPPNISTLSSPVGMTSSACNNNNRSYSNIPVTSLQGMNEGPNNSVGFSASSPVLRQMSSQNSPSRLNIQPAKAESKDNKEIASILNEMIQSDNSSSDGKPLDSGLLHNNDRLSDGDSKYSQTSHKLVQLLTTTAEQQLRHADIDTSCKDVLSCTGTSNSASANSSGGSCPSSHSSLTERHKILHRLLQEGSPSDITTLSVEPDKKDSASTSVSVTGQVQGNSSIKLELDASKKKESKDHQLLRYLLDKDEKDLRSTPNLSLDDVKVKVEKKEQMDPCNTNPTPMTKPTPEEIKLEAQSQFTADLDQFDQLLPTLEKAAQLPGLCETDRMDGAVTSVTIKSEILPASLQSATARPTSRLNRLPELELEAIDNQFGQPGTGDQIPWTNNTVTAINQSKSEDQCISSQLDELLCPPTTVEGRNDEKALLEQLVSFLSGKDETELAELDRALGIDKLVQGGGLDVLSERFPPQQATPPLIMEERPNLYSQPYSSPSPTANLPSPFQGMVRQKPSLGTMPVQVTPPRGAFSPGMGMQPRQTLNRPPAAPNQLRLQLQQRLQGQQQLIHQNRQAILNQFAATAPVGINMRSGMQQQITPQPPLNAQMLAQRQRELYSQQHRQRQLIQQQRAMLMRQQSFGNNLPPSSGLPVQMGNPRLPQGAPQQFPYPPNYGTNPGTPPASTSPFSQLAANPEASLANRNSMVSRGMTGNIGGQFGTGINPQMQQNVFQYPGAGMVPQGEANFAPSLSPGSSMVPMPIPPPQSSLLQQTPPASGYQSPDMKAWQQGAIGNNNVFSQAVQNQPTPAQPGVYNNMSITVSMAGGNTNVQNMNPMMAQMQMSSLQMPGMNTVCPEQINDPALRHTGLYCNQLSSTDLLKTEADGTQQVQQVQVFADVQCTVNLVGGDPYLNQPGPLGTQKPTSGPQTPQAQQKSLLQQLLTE
structure (smiles),measurement,setting,value
CC(C)C[C@H](NC(=O)[C@H](C)NC(=O)[C@H](C)NC(=O)[C@H](C)NC(=O)[C@H](C)NC(=O)[C@H](CC(C)C)NC(=O)[C@@H](N)CCCNC(=N)N)C(=O)N[C@@H](CC(C)C)C(=O)N1CCC[C@H]1C(=O)N1CCC[C@H]1C(=O)N[C@H](C(=O)N[C@@H](CCC(=O)O)C(=O)N[C@@H](CCC(N)=O)C(=O)N[C@@H](CC(=O)O)C(=O)N[C@@H](CC(C)C)C(=O)N[C@@]1(C)CCC/C=C\CCC[C@@](C)(C(=O)N[C@@H](Cc2ccc(O)cc2)C(N)=O)NC(=O)[C@H](CC2CCCCC2)NC(=O)[C@H](CC(C)C)NC(=O)[C@H](CCCCN)NC1=O)[C@@H](C)O [ND1-YL2] (H-RLAAAALLPPTEQDL[S5]KL[Cha][S5]Y-NH2; staple (Z) 16-20),Effect on cell survival,MDA-MB-231,did not significantly affect the survival
same,Effect on cell survival,Colo205,did not significantly affect the survival
same,Reduction of infiltrated MDA-MB-231-RFP cells in lungs compared to vehicle samples,MDA-MB-231-RFP cells,40%
same,Effect on SRC-1 expression level,SRC-1,induced a decrease in the expression level of SRC-1 in a dose-dependent manner
